Reference: ChEMBL document CHEMBL1201862, “PubChem BioAssay data set” (2004)
The source made the active and inactive calls.

Experiments:
Vasopressin V1a receptor = Vasopressin V1a receptor (Homo sapiens, UniProt P37288); test: Fluorescence-based cell-based high throughput dose response screening assay for agonists of the vasopressin 1 receptor (V1R).; format: functional
[1] = molecular target: T1, Zinc finger protein mex-5 (Caenorhabditis elegans, UniProt Q9XUB2); test: MEX-5/TCR-2 RNA interaction inhibitors, dose response, biochemical, C. elegans, fluorescence polarization (AID 1960)
T1 sequence (Q9XUB2 whole entry): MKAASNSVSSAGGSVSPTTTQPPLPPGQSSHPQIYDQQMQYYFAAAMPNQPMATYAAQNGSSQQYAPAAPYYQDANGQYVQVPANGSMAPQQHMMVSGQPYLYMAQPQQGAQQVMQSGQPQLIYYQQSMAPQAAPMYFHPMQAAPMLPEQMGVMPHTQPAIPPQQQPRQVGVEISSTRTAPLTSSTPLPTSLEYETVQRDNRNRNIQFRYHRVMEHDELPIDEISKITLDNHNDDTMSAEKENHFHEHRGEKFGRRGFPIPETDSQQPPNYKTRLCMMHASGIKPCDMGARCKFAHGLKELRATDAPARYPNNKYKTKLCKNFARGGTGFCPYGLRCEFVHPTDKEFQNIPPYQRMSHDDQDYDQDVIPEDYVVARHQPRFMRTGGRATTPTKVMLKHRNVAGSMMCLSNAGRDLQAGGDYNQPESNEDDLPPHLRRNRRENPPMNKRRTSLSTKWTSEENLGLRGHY

Oxytocin receptor = Oxytocin receptor (Homo sapiens, UniProt P30559); test: Counterscreen for vasopressin 1 receptor (V1R) agonists: Fluorescence-based cell-based high throughput dose response assay for agonists of the Oxytocin Receptor (OXTR). [Related pubchem assays: 2435 (Primary screen (OXTR agonists in singlicate)), 434964 (Confirmation screen (V1R agonists in triplicate)), 434969 (Counterscreen (OXTR agonists in …; format: functional
[2] = molecular target: T2, RNA-binding protein pos-1 (Caenorhabditis elegans, UniProt G5EF15); test: inhibitors of POS-1/mex-3 RNA binding, dose response, biochemical, fluorescence polarization (AID 1964);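 also: purified POS-1 fused to maltose binding protein made in E. coli; potency of compounds blocking POS-1 binding to fluorescent RNA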
T2 sequence (G5EF15 whole entry): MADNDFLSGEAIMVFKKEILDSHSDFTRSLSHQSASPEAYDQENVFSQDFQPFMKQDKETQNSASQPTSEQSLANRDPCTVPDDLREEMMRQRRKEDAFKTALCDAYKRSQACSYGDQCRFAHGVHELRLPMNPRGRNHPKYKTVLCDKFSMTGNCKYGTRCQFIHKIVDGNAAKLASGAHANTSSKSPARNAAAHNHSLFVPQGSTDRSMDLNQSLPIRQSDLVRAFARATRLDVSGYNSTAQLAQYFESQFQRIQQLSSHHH

[3] = molecular target: Potassium voltage-gated channel subfamily KQT member 2 (Rattus norvegicus, UniProt O88943, W236L); test: KCNQ2 channel potentiators, dose response, mechanism study for KCNQ2 potentiator project, cell-based, automated electrophysiology (AID 2603); format: functional
Genome polyprotein = Genome polyprotein (dengue virus type 2, UniProt P29990); test: Dengue-2 NS5 methyltransferase inhibitors, primary screen, biochemical, confirmation dose response (AID 588689); format: functional
[4] = molecular target: T3, Replicative DNA helicase DnaB (Mycobacterium tuberculosis, UniProt P9WMR3); test: DnaB intein splicing inhibitors, dose response, biochemical, cell-free fluorescence (AID 449749); format: functional
T3 sequence (P9WMR3 whole entry): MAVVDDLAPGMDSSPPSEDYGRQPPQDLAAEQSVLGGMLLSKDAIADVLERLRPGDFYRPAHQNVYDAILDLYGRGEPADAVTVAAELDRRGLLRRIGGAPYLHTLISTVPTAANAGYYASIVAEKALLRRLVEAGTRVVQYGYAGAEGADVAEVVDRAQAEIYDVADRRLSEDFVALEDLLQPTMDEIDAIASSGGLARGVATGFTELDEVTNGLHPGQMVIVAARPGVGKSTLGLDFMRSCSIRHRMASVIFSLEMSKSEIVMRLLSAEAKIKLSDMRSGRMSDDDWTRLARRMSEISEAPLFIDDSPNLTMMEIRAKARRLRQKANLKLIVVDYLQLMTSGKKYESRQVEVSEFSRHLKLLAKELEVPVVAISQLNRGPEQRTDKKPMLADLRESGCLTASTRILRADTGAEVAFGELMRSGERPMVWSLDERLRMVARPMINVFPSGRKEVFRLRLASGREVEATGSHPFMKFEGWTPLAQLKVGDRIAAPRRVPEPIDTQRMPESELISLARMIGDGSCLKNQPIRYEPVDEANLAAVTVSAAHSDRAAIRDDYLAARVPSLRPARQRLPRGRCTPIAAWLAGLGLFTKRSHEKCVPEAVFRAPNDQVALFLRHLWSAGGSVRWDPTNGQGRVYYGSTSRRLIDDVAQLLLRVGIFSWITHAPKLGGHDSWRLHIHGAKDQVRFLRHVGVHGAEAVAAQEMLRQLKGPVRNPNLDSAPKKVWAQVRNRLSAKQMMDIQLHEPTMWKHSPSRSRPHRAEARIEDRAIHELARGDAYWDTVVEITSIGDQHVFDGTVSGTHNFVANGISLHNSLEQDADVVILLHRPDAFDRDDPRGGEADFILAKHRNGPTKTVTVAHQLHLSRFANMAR

[5] = molecular target: T4, High affinity choline transporter 1 (Homo sapiens, UniProt Q9GZV3); test: CHT inhibitors, dose response, cell-based, 10-point CRC, membrane potential dye (AID 588401); format: functional;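 also: membrane potential dye fluorescence of choline-evoked depolarization via CHT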
T4 sequence (Q9GZV3 whole entry): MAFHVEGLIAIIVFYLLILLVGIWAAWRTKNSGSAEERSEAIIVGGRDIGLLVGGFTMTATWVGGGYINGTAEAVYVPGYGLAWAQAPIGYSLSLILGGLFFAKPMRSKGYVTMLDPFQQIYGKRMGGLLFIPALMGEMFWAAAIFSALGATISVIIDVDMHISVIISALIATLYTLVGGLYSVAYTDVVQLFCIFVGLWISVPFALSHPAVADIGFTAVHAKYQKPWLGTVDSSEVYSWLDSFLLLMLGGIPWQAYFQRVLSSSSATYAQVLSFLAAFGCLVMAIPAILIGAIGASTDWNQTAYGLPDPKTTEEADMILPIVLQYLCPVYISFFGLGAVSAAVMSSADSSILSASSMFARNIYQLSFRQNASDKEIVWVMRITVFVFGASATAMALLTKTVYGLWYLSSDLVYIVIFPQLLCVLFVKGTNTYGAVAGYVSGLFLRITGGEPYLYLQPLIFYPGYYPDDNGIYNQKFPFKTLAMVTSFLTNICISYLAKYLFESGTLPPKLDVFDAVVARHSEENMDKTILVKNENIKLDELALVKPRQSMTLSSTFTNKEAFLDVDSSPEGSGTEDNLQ

[6] = HepG2 cell cytotoxicity, dose response, cytotoxicity control for Shn3 inhibitor project, CellTiter-Glo, cherry-picked (AID 624134); format: functional, cell-based
Vero = Vero cell cytotoxicity, cytotoxicity control for flavivirus capping enzyme inhibitors (AID 588742); format: functional; settings: Chlorocebus sabaeus
Protein RecA = molecular target: T5, Protein RecA (Mycobacterium tuberculosis, UniProt P9WHJ3); test: Fluorescence Cell-Free Homogeneous Dose Retest to Identify Inhibitors of RecA-Intein Splicing Activity. [Related pubchem assays (depositor defined):AID2097, AID2223, AID489010, AID492950]; format: functional
T5 sequence (P9WHJ3 whole entry): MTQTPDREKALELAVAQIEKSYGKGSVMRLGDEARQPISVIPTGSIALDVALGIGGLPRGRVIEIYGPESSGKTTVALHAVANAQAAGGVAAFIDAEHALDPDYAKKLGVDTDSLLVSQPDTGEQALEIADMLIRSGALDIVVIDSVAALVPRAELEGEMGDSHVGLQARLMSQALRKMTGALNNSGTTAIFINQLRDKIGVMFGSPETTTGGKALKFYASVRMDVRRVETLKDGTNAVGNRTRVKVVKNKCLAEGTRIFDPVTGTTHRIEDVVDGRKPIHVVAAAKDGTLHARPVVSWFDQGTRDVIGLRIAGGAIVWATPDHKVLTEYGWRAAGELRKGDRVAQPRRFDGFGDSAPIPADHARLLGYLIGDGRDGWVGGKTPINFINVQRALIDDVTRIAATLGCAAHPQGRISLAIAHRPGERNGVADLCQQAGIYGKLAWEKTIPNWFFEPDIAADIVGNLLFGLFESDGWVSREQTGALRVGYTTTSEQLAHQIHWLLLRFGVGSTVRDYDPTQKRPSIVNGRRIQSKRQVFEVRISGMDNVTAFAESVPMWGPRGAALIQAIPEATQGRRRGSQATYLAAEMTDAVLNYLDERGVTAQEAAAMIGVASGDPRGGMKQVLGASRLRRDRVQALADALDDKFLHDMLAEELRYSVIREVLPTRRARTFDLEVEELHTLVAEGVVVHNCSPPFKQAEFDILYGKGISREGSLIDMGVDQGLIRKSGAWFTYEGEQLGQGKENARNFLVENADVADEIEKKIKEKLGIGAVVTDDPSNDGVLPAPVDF

[7] = molecular target: ATP-binding cassette sub-family B member 6 (Homo sapiens, UniProt Q9NP58); test: ABCB6 transporter inhibitors, porphyrin accumulation, dose response, flow cytometry, K562-ABCB6 cells, cherry pick 02 (AID 624487); format: functional; settings: read-out: EC50_MICROM
[8] = molecular target: T4, High affinity choline transporter 1; test: CHT inhibitors, dose response, cell-based, 5-point CRC, membrane potential dye (AID 504840); format: functional
[9] = control 3'UTR Renilla luciferase suppression, dose response, counter-screen for Shn3 inhibitor project, cell-based, Clone20-Shn3RL, cherry-picked (AID 624133); format: functional
[10] = Shn3 3'UTR reporter inhibitors, dose response, cell-based, Clone20 osteoblasts, firefly luciferase, cherry-picked (AID 624132); format: functional;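 also: firefly luciferase luminescence from reporter carrying the Shn3 3'UTR in osteoblasts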

Sequence of ATP-binding cassette sub-family B member 6 (Q9NP58 whole entry): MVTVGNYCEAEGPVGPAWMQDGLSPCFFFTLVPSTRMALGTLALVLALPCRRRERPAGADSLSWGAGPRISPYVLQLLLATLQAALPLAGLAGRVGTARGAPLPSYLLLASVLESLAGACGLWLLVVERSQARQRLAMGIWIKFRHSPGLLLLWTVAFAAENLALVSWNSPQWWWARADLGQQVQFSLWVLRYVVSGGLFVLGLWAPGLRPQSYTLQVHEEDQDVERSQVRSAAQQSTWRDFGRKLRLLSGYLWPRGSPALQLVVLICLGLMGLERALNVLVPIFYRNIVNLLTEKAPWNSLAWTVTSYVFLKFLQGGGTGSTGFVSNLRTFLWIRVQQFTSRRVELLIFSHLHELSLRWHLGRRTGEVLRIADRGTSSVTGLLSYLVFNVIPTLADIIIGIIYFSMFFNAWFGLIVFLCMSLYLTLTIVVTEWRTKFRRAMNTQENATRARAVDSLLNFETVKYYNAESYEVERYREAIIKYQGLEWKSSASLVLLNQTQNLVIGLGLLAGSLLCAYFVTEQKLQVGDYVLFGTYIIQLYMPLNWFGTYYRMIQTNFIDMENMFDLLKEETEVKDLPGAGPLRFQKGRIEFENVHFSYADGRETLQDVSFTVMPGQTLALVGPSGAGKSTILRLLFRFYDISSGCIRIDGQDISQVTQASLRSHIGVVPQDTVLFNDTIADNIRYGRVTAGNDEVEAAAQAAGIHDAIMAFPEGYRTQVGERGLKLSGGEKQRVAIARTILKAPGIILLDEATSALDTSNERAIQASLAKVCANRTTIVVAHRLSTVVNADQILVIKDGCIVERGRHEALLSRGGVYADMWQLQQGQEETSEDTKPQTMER
Sequence of Oxytocin receptor (P30559 whole entry, the tested form may be a part): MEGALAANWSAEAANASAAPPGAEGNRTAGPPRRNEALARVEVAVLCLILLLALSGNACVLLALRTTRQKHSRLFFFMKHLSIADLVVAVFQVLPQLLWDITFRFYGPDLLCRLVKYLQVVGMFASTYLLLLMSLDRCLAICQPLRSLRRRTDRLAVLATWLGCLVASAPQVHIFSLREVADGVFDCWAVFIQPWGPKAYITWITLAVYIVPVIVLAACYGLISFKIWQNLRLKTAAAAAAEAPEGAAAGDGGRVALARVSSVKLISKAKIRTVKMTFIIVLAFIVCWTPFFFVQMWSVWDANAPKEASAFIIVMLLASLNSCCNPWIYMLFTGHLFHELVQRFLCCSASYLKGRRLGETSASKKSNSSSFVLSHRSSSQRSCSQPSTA
Sequence of Potassium voltage-gated channel subfamily KQT member 2 (O88943 whole entry W236L): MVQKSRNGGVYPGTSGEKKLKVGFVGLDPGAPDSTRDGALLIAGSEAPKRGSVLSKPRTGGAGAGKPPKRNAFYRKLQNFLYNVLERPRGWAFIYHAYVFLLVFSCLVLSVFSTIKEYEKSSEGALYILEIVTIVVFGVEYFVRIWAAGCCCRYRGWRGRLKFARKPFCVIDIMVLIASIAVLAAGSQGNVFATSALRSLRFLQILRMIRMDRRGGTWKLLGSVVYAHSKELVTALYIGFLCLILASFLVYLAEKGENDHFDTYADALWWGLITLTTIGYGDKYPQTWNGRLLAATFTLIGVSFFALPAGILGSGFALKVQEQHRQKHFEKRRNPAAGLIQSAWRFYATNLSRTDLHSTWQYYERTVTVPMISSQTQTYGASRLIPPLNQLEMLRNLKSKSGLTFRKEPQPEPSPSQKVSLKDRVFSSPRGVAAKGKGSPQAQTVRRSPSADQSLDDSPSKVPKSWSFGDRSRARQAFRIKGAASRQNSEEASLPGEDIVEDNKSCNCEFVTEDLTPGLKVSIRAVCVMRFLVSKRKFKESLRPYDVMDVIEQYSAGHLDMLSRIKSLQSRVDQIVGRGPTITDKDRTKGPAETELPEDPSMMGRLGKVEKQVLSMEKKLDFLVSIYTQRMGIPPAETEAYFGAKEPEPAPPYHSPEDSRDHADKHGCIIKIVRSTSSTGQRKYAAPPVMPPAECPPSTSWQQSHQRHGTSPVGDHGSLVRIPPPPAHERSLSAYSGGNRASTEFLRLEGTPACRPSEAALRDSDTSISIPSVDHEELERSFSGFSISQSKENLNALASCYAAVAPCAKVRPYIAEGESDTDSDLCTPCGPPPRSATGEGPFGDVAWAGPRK
Sequence of Genome polyprotein (P29990 2492-3391 limits assumed): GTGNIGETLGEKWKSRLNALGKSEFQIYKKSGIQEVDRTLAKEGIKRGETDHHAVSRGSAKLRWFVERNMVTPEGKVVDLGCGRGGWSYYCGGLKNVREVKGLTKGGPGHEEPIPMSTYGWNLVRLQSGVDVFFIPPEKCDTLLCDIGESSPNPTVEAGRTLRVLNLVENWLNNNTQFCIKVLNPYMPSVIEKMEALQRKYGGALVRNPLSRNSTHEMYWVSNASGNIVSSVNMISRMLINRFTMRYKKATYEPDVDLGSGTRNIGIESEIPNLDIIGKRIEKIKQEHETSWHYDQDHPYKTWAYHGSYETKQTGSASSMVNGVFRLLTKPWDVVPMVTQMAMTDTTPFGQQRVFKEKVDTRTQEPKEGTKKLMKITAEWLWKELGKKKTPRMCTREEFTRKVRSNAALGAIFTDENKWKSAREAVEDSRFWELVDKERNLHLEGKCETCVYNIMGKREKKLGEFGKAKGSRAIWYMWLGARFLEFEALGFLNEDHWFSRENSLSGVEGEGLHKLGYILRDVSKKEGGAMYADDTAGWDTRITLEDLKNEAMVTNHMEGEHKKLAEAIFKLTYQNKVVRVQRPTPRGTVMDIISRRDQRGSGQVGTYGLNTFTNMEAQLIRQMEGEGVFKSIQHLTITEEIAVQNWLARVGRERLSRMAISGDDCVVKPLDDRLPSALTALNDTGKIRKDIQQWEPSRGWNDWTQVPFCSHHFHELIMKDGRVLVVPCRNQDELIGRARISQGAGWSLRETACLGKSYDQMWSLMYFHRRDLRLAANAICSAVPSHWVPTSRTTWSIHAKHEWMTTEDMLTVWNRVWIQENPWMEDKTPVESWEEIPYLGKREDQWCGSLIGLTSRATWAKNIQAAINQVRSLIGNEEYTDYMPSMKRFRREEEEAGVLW
Sequence of Vasopressin V1a receptor (P37288 whole entry): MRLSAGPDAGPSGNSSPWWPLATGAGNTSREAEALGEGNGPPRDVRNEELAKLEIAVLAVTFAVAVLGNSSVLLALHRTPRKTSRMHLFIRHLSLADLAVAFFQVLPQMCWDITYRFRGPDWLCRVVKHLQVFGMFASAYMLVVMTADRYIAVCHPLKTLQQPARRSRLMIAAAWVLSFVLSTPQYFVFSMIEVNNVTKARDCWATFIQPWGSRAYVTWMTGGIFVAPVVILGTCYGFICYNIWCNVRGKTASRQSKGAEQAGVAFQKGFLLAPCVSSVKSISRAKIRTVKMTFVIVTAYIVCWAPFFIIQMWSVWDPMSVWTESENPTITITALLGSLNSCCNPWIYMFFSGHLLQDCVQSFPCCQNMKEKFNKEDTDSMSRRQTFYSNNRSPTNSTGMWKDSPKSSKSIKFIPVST

Compound | EC50 (Vasopressin V1a receptor) | EC50 [1] | EC50 (Oxytocin receptor) | EC50 [2] | EC50 [3] | IC50 (Genome polyprotein) | AC50 [4] | IC50 [5] | AC50 [6] | CC50 (Vero) | EC50 (Protein RecA) | EC50 [7] | IC50 [8] | AC50 [9] | AC50 [10]
Cc1cc(C)c(/C=C2\C(=O)Nc3ccccc32)[nH]1 [SEMAXANIB] | 12.1 µM (not active) | > 300 µM (not active) | 11.5 µM (not active) | > 300 µM (not active) |  |  |  |  |  |  |  |  |  |  | 
CCc1nnc(NC(=O)c2nc(S(=O)(=O)Cc3ccc(C)cc3)ncc2Cl)s1 |  |  |  |  | 4.8 µM (active) | > 100 µM (active) | 5.97 µM (active) | 3.11 µM (active) | > 70 µM (inactive) | 28.9 µM (active) | 4.11 µM (active) | 29.5 µM (active) | 3.31 µM (active) | 6.18 µM (active) | 3.01 µM (active)
